The results in this text go back to PMC6004087, “Production of the compatible solute α-D-glucosylglycerol by metabolically engineered Corynebacterium glutamicum” (Microbial Cell Factories, 2018).

The test addresses T1, OtsA (trehalose 6-phosphate synthase; OtsA-Strep) (Corynebacterium glutamicum, UniProt Q8NMF3).
T1 construct: gene Cgl2624; full-length OtsA with C-terminal Strep-tag kept (pASK-IBA3-otsA), expressed in E. coli BL21(DE3), Strep-Tactin purified, 53 kDa
T1 sequence (Q8NMF3 1-485): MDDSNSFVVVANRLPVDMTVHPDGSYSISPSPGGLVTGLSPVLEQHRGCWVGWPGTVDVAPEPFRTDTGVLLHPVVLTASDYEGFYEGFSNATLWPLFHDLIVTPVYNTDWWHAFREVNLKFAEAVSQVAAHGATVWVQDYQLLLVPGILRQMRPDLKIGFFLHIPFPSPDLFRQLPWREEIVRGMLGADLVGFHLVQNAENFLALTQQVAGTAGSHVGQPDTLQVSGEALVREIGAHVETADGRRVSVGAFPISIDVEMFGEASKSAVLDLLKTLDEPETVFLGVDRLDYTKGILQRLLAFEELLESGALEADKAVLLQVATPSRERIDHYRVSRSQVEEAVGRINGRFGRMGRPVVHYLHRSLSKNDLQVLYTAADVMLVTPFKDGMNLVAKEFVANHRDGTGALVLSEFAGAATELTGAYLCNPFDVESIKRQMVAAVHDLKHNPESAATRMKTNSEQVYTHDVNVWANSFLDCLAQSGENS
The experiment in a line: GC of trehalose after alkaline phosphatase treatment of trehalose-6-phosphate. In kind it is biochemical. The following applies: co-substrate 3 mM glucose-6-phosphate; 10 mM Tris-maleate, 5 mM MgCl2, 0.05 mM EDTA, pH 7.5, 30 °C; 3 mM or 5 mM sugar nucleotide.

Turning to `Nc1ncnc2c1ncn2[C@@H]1O[C@H](COP(=O)(O)OP(=O)(O)O[C@H]2O[C@H](CO)[C@@H](O)[C@H](O)[C@H]2O)[C@@H](O)[C@H]1O` [ADP-glucose], the specific activity result is “C. glutamicum OtsA used UDP- as well as ADP-glucose as precursor for trehalose-phosphate synthesis”.
